According to patent US12605358B2, “Composition for preventing or treating nervous system diseases comprising compound that inhibits mTOR signaling pathway as active ingredient” (ALIAD BIOPHARMA, priority 2021, dated 2026):

Key:
5xFAD transgenic mice [1] = assay: Autophagy indicators in brain (LC3/GFAP and LC3/MAP2 staining, LC3 immunoblot); assay type: in vivo
Description: (§1) 5xFAD animals were administered with HN-1703 at three doses for 14 days to male heterozygotes aged 6 months (all born within 3 days). The behaviors of mice were measured in a dark cycle in which the mice were active while alternating light and dark in a 12-hour cycle in a breeding room chamber, and the mice were freely accessible to food and water and bred in compliance with experimental animal ethical guidelines of Kyung Hee University. In each group, the HN-1703 was intraperitoneally injected at the same time once a day in a volume of 100 μl to 12 mice in a normal group (wild type littermate), 9 5xFAD mice in a vehicle (DMSO administration), 8 5xFAD mice in a 5 mg/kg administered group, 9 5xFAD mice in a 10 mg/kg administered group, and 9 5xFAD mice in a 20 mg/kg administered group. […] In a behavioral measurement room, humidity (40 to 60%) and temperature (22 to 26° C.) were maintained, and reflected light was maintained to avoid sound and light effects. Behavioral measures were measured in Y-maze, Morris Water Maze, and Passive Avoidance test for 18 days in sequence.
(§2) A brain slice immunostaining method was modified and used as described in Heo H et al. (J Ethnopharmacol, 2009). Mice were transcardially perfused with 4% PFA. After being immersed and fixed in 4% PFA for 4 hours, the brain tissue was unfrozen in 30% sucrose, frozen in an optimal cutting temperature (OCT) mixture, and stored at −80° C. Brain tissue slices were sectioned in a coronal direction at a thickness of 35 μm. The brain tissue slices were immersed in a storage solution (30% glycerol, 30% ethylene glycol, PBS) and stored at 4° C. The stored brain slices were permeabilized in 0.5% Triton X-100 for 20 minutes and shaken in 2 N HCl for 30 minutes at 37° C. Then, the brain slices were blocked in a free-floating state for 2 hours in 15% standard serum, 3% bovine serum albumin (BSA, bio-WORLD, Dublin, OH, USA) and 0.1% Triton X-100. The slices were shaken with a first antibody for 16 hours at 4° C. Thereafter, a second antibody complementary to the first antibody was attached at room temperature (22±1° C.) for 45 minutes. Then, the nuclei were washed with physiological saline (PBS) containing 1 μg/ml PI (propidiumiodide, Sigma) or DAPI (1:4000), and then placed on a slide glass and sealed using an aqueous mount, and observed under a confocal scanning microscope for tissue observation (LSM 810 Carl Zeiss, Oberkochen, Germany).
The first antibody used antibodies such as LC3-II (MBL, PM036), MAP2 (sigma, m4403) [for LC3/MAP2 double staining], 6E10 (biolegend, 803001) [for LC3/6E10; ICC double staining], GFAP (abcam, ab53554) [for LC3/GFAP double staining], Iba-1 (wako, 011-27991) [for LC3/IBA1 double staining], Iba-1 (Wako, 019-19741) [for ThioS/Iba1/PI triple staining], Sox2 (R&D system, MAB2018) [for SOX2/DCX/NeuN triple staining], DCX (Santa Cruz, sc8066) [for SOX2/DCX/NeuN triple staining], AT8 (Invitrogen, MN1020) [for AT8/MAP2 double staining], MAP2 (abcam, ab32454) [for AT8/MAP2 double staining], NeuN (Millipore, MAB377B), Tuj1 (Sigma, T8660), Nestin (Millipore, MAB353), GFAP (Chemicon), and the like, and the second antibody used Alexa 488, Cy3, Alexa 488 (Invitrogen, A21202), Cy3 (Jackson lab, 715-165-151), and Alexa 488 (Jackson lab, 711-546-152).
When PS1 was KO, lysosome acidification was weakened and autophagy was inhibited (Lee et al. (2010) Cell 141: 1146-1158), and in 5xFAD mice with mutations in PS1, the generation of autophagy was somewhat attenuated and may be activated in the presence of endogenous WT PS1. In other words, there were example in which cellular conditions that inhibit mTOR, such as lack of amino acids, or suppression of inflammation activated autophagy, and treatment with a cAMP or β-adrenergic agonist restored lysosomal acidification in PS1 mutant cells (Coffey et al. (2014) Neuroscience 263: 111-124). […]

mTORC2 = molecular target: T1, mTORC2 (Homo sapiens, UniProt P42345); assay: mTORC2 inhibition, immunoblot of AKT Ser473 phosphorylation in HeLa cells; assay type: cell-based; settings: at 40 µM, FIG. 2A
T1 construct: endogenous in cells; host or cells: HeLa
Description: HeLa cells were cultured in DMEM (Dulbesco's Modified Eagles Media) containing 10% FBS, penicillin (100 units/ml), and streptomycin (100 μg/ml) at 37° C. in a 5% CO2 incubator. Culture was started by seeding 4×10^5 cells in a 100 mm culture dish, and subcultured every 3 days.
Immunoblot analysis was performed by the following method. SDS-PAGE-developed proteins were electroblotted and transferred and a PVDF membrane was blocked by shaking for 1 hour in a TBS-T buffer (20 mM Tris, 137 mM NaCl, 0.1% Tween 20) containing 5% skim milk. The membrane was repeatedly washed with a TBS-T buffer three times for 5 minutes, and reacted with a first antibody diluted in a TBS-T buffer containing 5% skim milk or 5% BSA overnight at 4° C. Thereafter, the membrane was repeatedly washed with a TBS-T buffer three times for 5 minutes, and reacted with a second antibody diluted in a TBS-T buffer containing 5% skim milk for 30 minutes at room temperature. The membrane was repeatedly washed with a TBS-T buffer containing 5% skim milk five times for 5 minutes, and then protein bands bound to the second antibody were detected by a chemiluminescence method. […]

5xFAD transgenic mice [2] = assay: NFT removal, AT8/MAP2 staining of brain slices; assay type: in vivo
Description: as §1
as §2, with “Thereafter, a second antibody complementary to the first antibody was attached at room temperature (22±1° C.) for 45 minutes. Then, the nuclei were washed with physiological saline (PBS) containing 1 μg/ml PI (propidiumiodide, Sigma) or DAPI (1:4000), and then placed on a slide glass and sealed using an aqueous mount, and observed under a confocal scanning microscope for tissue observation (LSM 810 Carl Zeiss, Oberkochen, Germany).” left out

For `COc1cc(OC)c2c(=O)c3cc4c(cc3oc2c1)OCO4` [HN-1703, 7,9-dimethoxy-10H-[1,3]dioxolo[4,5-b]xanthen-10-one], the LC3-II staining (5xFAD transgenic mice [1]; 5 mg/kg to 10 mg/kg, FIG. 12) was “stained at the level of a WT normal group”, the “LC3-II increase compared to the 5xFAD-DMSO control group” value (5xFAD transgenic mice [1]; 20 mg/kg, FIG. 12) was 2.5 times and the “LC3-II increase compared to the WT normal group” value (5xFAD transgenic mice [1]; 20 mg/kg, FIG. 12) was 1.4 times. For the same compound, the “LC3-II staining in the axon of the hippocampal pyramidal neuron” value (5xFAD transgenic mice [1]; 20 mg/kg, FIG. 13) was “recovered to the level of the WT normal group”, the “autophagic vacuoles near the nuclei of large neurons in the subgranular cell layer of the hippocampus” value (5xFAD transgenic mice [1]; FIG. 14) was “significantly increased” and the “ratio of the autophagy activation marker LC3-II/LC3-I (brain immunoblot)” value (5xFAD transgenic mice [1]; FIG. 15) was “increased”. The LC3-II staining (5xFAD transgenic mice [1]; hippocampal dentate gyrus, compared to a 5xFAD-DMSO control group, FIG. 12) was “increased in a dose-dependent manner”, the “astrocytes stained with the GFAP antibody” value (5xFAD transgenic mice [1]; increased in 5xFAD-DMSO vs WT, FIG. 12) was “decreased to a normal level” and the “inhibition of mTORC2 activity (AKT Ser473 phosphorylation) compared to the control group” value (mTORC2) was 55%. For the same compound, the “decrease of NFTs compared to the 5xFAD-DMSO group” value (5xFAD transgenic mice [2]; 20 mg/kg, dentate gyrus, FIG. 9) was ≥ 70%, the “NFT (AT8 staining)” value (5xFAD transgenic mice [2]; 5 to 20 mg/kg, all three brain regions examined, FIG. 9) was “decreased in a dose-dependent manner” and the “number of neurons stained with NFT (AT8+/MAP2+)” value (5xFAD transgenic mice [2]; dentate gyrus, FIG. 10) was “decreased in a dose-dependent manner”.
